How the values were obtained:
[1] = test system: washed human platelets; test: Lactate dehydrogenase (LDH) leakage cytotoxicity assay; format: cell-based; settings: 50 µM; compared with positive control Triton X-100
Protocol: The cytotoxicity of the active analogs was determined with the lactate dehydrogenase (LDH) leakage assay to ensure that platelet inhibition was a consequence of pharmacologic inhibition and not cytotoxicity. LDH is a stable cytosolic marker for membrane perturbation and is present in many cell types, including platelets.
Compound cytotoxicity was assessed using LDH Cytotoxicity Assay Kit (No. 601170; Cayman Chemical, MI) as previously described. Washed human platelets (2.5 × 10^8/mL) were incubated at 37 °C for 10 min with the highest concentration of compounds (50 µM for R-G04 and S-G04, and 20 µM for Rhosin analogs) or the vehicle, dimethyl sulfoxide (DMSO) 0.1% or 10% Triton X-100, which served as the positive control. The platelets were centrifuged at 800× g for 8 min at 4 °C, and 100 µL of the supernatant was mixed with 100 µL of LDH reaction solution in a 96-well plate. The plate was incubated at 37 °C for 10 min under constant orbital shaking before measurement of the absorbance at 490 nm in a plate reader (BioTek Synergy LX multimode reader; Santa Clara, CA, USA).

[2] = test system: washed human platelets; test: Platelet aggregation induced by AA, U46619, ADP or thrombin; format: cell-based; settings: 10 µM S-G04 or 20 µM R-G04, 2 min pre-incubation
Description: TxA2 is a metabolite derived from AA via the COX pathway, a potent vasoconstrictor, and a platelet agonist that results in irreversible platelet aggregation. […] The data in Figure 7 show the potential of the RhoA inhibitors to inhibit platelet aggregation mediated by diverse agonists, i.e., TxA2, ADP, U46619, AA, and thrombin, and ATP secretion, highlighting the potential to inhibit multiple-agonist-mediated platelet activation pathways at micromolar concentrations.
(A–D) Washed human platelets were pre-incubated with 10 µM S-G04 or 20 µM R-G04 for 2 min before being stimulated with Arachidonic Acid (AA), U46619, ADP, or Thrombin. The % platelet aggregation was measured 5 min after agonist stimulation. (E) Washed human platelets were pre-incubated with 10 µM S-G04 or 20 µM R-G04 for 2 min and with Chrono-lume® for 30 s at 37 °C before being stimulated with 0.1 U/mL Thrombin. […] TxB2 formation was determined using a TxB2 ELISA kit. The differences among DMSO, R-G04, and S-G04 were analyzed using t-test, and the results are shown as means ± SDs of three independent experiments. (* p < 0.05, ** p < 0.01, *** p < 0.001, and **** p < 0.0001).
The in vitro antiplatelet activity of the compounds was assayed on washed human platelets using light transmission aggregometry. Platelet aggregation was performed using a 4-channel Lumi-aggregometer (Chronolog, PA, USA) at 37 °C and stirring speed of 900 rpm. A volume of 250 µL of washed human platelets (2.5 × 10^8/mL) was pre-warmed to 37 °C along with the compounds or DMSO (0.1%) for 2 min before the addition of agonists such as collagen, AA, U46619 (a stable synthetic analog of thromboxane A2), ADP, and thrombin. For ATP secretion, platelets were pre-incubated with a luciferin/luciferase kit (Chrono-lume®) for 30 s at 37 °C before the addition of the agonist. The reactions were allowed to proceed for at least 4 min, and the results of platelet aggregation and ATP secretion were determined using Aggrolink software. Platelet aggregation was expressed as the maximum change in the light transmission, where the 100% value corresponded to treatment with the agonist alone. Compounds were evaluated in triplicate at nine compound concentrations ranging from 50 µM to 1 µM. The half-maximal inhibitory concentration (IC50) value was calculated as the concentration of the inhibitor causing 50% inhibition of aggregation.

[3] = test system: RhoA; set-up: method as in PMID 22726684, PMID 22956131; settings: cited from earlier work
[4] = test system: RhoA, Rac1 and Cdc42; set-up: method as in PMID 22726684, PMID 27681226; settings: cited from earlier work
[5] = test system: washed human platelets; test: Wash-out reversibility of inhibition of collagen-induced platelet aggregation; format: cell-based
Protocol: The reversible inhibition of Rhosin in collagen-induced platelet aggregation was assessed with similar wash-out experiments, and this reversible nature of Rhosin makes it a valuable antiplatelet drug candidate (Supporting Information Figure S4A,B). After confirming the structures of the above six active analogs, similar wash-out experiments were performed to compare the reversible function of the active analogs with Rhosin reversibility.

[6] = Pharmacokinetic profile (unpublished data)

pharmacokinetic profile [6] | Structure (SMILES) | cytotoxicity, LDH assay [1] | AA-induced platelet aggregation [2] | ADP-induced platelet aggregation [2] | U46619-induced platelet aggregation [2] | thrombin-induced platelet aggregation [2] | affinity of binding to the Trp58 region of the RhoA surface [3] | specificity of inhibition of Rho GTPase activation [4] | reversibility of inhibitory effect after wash-out [5]
 | N[C@@H](Cc1c[nH]c2ccccc12)C(=O)N/N=C/c1ccc2nccnc2c1 [S-G04] | neither R-G04 nor S-G04 induced significant human platelet cytolysis | suppressed the platelet activation | significantly inhibited ADP-induced platelet aggregation | suppressed the platelet activation | suppressed the platelet activation |  |  | 
poor pharmacokinetic profile | N[C@H](Cc1c[nH]c2ccccc12)C(=O)N/N=C/c1ccc2nccnc2c1 [R-G04] | neither R-G04 nor S-G04 induced significant human platelet cytolysis | failed to have the same inhibitory effect | significantly inhibited ADP-induced platelet aggregation | failed to have the same inhibitory effect | failed to have the same inhibitory effect | micromolar affinity | specifically inhibits the activation of RhoA but not that of Rac1 and Cdc42 | reversible

Reference: article PMC9961652 (International Journal of Molecular Sciences, 2023)
